Laboratory results: US11319311B2, “Crystalline forms of Actinomycin D for treatment of cancer” (TRANSGENEX NANOBIOTECH, INC., priority 2018, dated 2022)
Where two headings read alike, the source gives them in different places.

What was measured:
[1] = Accelerated stability studies (PXRD physical form stability); assay type: physicochemical; conditions: accelerated conditions 75% humidity and 40° C., one year, by PXRD
Experimental: Stability studies of the DACT novel forms were conducted using accelerated conditions (75% humidity and 40° C.) of which are obvious to the artisan in the field, for more than one year. […] Selected data of the novel complexes of DACT:methylparaben, propylparaben and diphenic acid proves this point.

SK-ES-1 = test: Monolayer cell culture IC50 (CellTiter-Glo viability), SK-ES-1; assay type: cell-based, human; conditions: Sarcoma, SK-ES-1, monolayer, 72 hours treatment, average of three replications
Experimental: (§1) Cancer cell lines listed in Table 1 were subjected for testing anti-cancer potency or the half maximal inhibitory concentration (IC50) of the D-Actinomycin (DACT) molecular complexes.
(§2) The SK-ES-1, U-2 OS, and SAOS-2 cells were cultured in a growth medium that is ATCC-formulated McCoy's 5a Medium Modified, Catalog No. 30-2007. The PC-3, PANC-1, SK-Mel-5, A549, H460, and H1299 were cultured in a growth medium that is ATCC-formulated Dulbecco's Modified Eagle's Medium (DMEM), Catalog No. 30-2002. The cells were seeded on 96-well microtiter plates with 3500 cells per well and cultured in an incubator (Model 3120, Thermo Scientific, USA) with a constant temperature at 37° C. and 5% carbon dioxide (CO2) gas for 24 hours.
(§3) The new DACT-molecular complexes were made into a series with concentration of 200 nM to 40 nM, 8 nM, 1.6 nM, 0.32 nM, and 0.064 nM. 100 μl of each solution was then added into each well to bring out the final concentration of the drug treatment at 100 nM, 20 nM, 4 nM, 0.8 nM, 0.16 nM, or 0.032 nM, respectively.
(§4) The treated cells in the 96 well plate was then further cultured at the same conditions for 72 hours and then subjected for a final cell viability measurement. The measurement used a homogeneous method to determine the number of metabolically active cells presented in each of treatments. A testing reagent for the measurement is a mixture solution of the CellTiter-Glo® 2.0 reagent (CTG, Promega Cat #G9243, USA) and growth medium in 1:1 ratio in this respect.
(§5) The 96-well plate with the new molecular complex treated cells was taken out from incubator after the 72 hours of incubation, and the treatment solution in each well was removed using a multichannel pipette, and 100 μl of the testing reagent were added into each well. The plate was then placed on a plate shaker for 15 min. The plate was covered with a piece of aluminum foil to protect the CTG luminescence during the shaking time.
(§6) Then 90 μl of the 100 μl testing reagent were transferred into an opaque-walled 96-well plate for the CTG luminescence reading on a plate reader (SynergyH4 Hybrid Reader, Biotek, USA). The luminescence intensity of each treatment was positively correlated with the number of cells survived during the treatments.
(§7) All the treatment data was normalized by comparing with the control samples that had only growth medium without any molecular complexes. The half maximal inhibitory concentration (IC50) data was calculated using the nonlinear regression model and dose-responses (inhibition) curve built in the software. Each of treatments was performed in three replications each time and repeated three times for validation. The IC50 average […] (Avg) and standard deviation (STDV) were calculated based on the three replications.

U-2 OS = test: Monolayer cell culture IC50 (CellTiter-Glo viability), U-2 OS; assay type: cell-based
Experimental: as §1, §2, §3, §4, §5, §6, §7

SK-Mel-5 = test: Monolayer cell culture IC50 (CellTiter-Glo viability), SK-Mel-5; assay type: cell-based
Experimental: as §1, §2, §3, §4, §5, §6, §7

PC-3 = test: Monolayer cell culture IC50 (CellTiter-Glo viability), PC-3; assay type: cell-based
Experimental: as §1, §2, §3, §4, §5, §6, §7

PANC-1 = test: Monolayer cell culture IC50 (CellTiter-Glo viability), PANC-1; assay type: cell-based
Experimental: as §1, §2, §3, §4, §5, §6, §7

A549 = test: Monolayer cell culture IC50 (CellTiter-Glo viability), A549; assay type: cell-based; conditions: Homo sapiens, Lung, 72 hours treatment, average of three replications
Experimental: as §1, §2, §3, §4, §5, §6, §7

H460 = test: Monolayer cell culture IC50 (CellTiter-Glo viability), H460; assay type: cell-based; conditions: Homo sapiens, NCI-H460, Lung, 72 hours treatment, average of three replications
Experimental: as §1, §2, §3, §4, §5, §6, §7

H1299 = test: Monolayer cell culture IC50 (CellTiter-Glo viability), H1299; assay type: cell-based; conditions: Homo sapiens, NCI-H1299, Lung, 72 hours treatment, average of three replications
Experimental: as §1, §2, §3, §4, §5, §6, §7

[2] = in vivo; cited from earlier work
[3] = in vivo; cited from earlier work; remark: listed apart in the source
[4] = Test I, read-out: IC50 Test (I) Avg
[5] = Test II, read-out: IC50 Test (II) Avg
[6] = Test III, read-out: IC50 Test (III) Avg
[7] = Sarcoma, U-2 OS, monolayer, 72 hours treatment, Test I, average of three replications, read-out: IC50 Test (I) Avg
[8] = Sarcoma, U-2 OS, monolayer, 72 hours treatment, Test II, average of three replications, read-out: IC50 Test (II) Avg
[9] = Sarcoma, U-2 OS, monolayer, 72 hours treatment, Test III, average of three replications, read-out: IC50 Test (III) Avg
[10] = Skin, SK-Mel-5, monolayer, 72 hours treatment, Test I, average of three replications, read-out: IC50 Test (I) Avg
[11] = Skin, SK-Mel-5, monolayer, 72 hours treatment, Test II, average of three replications, read-out: IC50 Test (II) Avg
[12] = Skin, SK-Mel-5, monolayer, 72 hours treatment, Test III, average of three replications, read-out: IC50 Test (III) Avg
[13] = Prostate, PC-3, monolayer, 72 hours treatment, Test I, average of three replications, read-out: IC50 Test (I) Avg
[14] = Prostate, PC-3, monolayer, 72 hours treatment, Test II, average of three replications, read-out: IC50 Test (II) Avg
[15] = Prostate, PC-3, monolayer, 72 hours treatment, Test III, average of three replications, read-out: IC50 Test (III) Avg
[16] = Pancreatic, PANC-1, monolayer, 72 hours treatment, Test I, average of three replications, read-out: IC50 Test (I) Avg
[17] = Pancreatic, PANC-1, monolayer, 72 hours treatment, Test II, average of three replications, read-out: IC50 Test (II) Avg
[18] = Pancreatic, PANC-1, monolayer, 72 hours treatment, Test III, average of three replications, read-out: IC50 Test (III) Avg

Cc1c2oc3c(C)ccc(C(=O)NC4C(=O)NC(C(C)C)C(=O)N5CCCC5C(=O)N(C)CC(=O)N(C)C(C(C)C)C(=O)OC4C)c3nc-2c(C(=O)NC2C(=O)NC(C(C)C)C(=O)N3CCCC3C(=O)N(C)CC(=O)N(C)C(C(C)C)C(=O)OC2C)c(N)c1=O.NC(CS)C(=O)O (racemic) [DACT:DL-cysteine]
physical form stability [1]: shown physical stability

Cc1c2oc3c(C)ccc(C(=O)N[C@@H]4C(=O)N[C@H](C(C)C)C(=O)N5CCC[C@H]5C(=O)N(C)CC(=O)N(C)[C@@H](C(C)C)C(=O)O[C@@H]4C)c3nc-2c(C(=O)N[C@@H]2C(=O)N[C@H](C(C)C)C(=O)N3CCC[C@H]3C(=O)N(C)CC(=O)N(C)[C@@H](C(C)C)C(=O)O[C@@H]2C)c(N)c1=O [DACT, reference compound]
IC50 (SK-ES-1; Homo sapiens, SK-ES1, Test I, read-out: IC50 Test (I) Avg): 1.03 nM
IC50 (SK-ES-1; Homo sapiens, SK-ES1, Test II, read-out: IC50 Test (II) Avg): 0.56 nM
IC50 (SK-ES-1; Homo sapiens, SK-ES1, Test III, read-out: IC50 Test (III) Avg): 0.63 nM
IC50 (U-2 OS; Homo sapiens, U2OS, 72 h, read-out: IC50 Test (I) Avg (nM)): 5.29 nM
IC50 (U-2 OS; Homo sapiens, U2OS, 72 h, read-out: IC50 Test (II) Avg (nM)): 5.63 nM
IC50 (U-2 OS; Homo sapiens, U2OS, 72 h, read-out: IC50 Test (III) Avg (nM)): 2.62 nM
IC50 (SK-Mel-5; Homo sapiens, SK-MEL-5, 72 h, read-out: IC50 Test (I) Avg (nM)): 0.61 nM
IC50 (SK-Mel-5; Homo sapiens, SK-MEL-5, 72 h, read-out: IC50 Test (II) Avg (nM)): 0.5 nM
IC50 (SK-Mel-5; Homo sapiens, SK-MEL-5, 72 h, read-out: IC50 Test (III) Avg (nM)): 2.9 nM
IC50 (PC-3; Homo sapiens, PC-3, 72 h, read-out: IC50 Test (I) Avg (nM)): 8.81 nM
IC50 (PC-3; Homo sapiens, PC-3, 72 h, read-out: IC50 Test (II) Avg (nM)): 7 nM
IC50 (PC-3; Homo sapiens, PC-3, 72 h, read-out: IC50 Test (III) Avg (nM)): 7.28 nM
IC50 (PANC-1; Homo sapiens, PANC-1, 72 h, read-out: IC50 Test (I) Avg (nM)): 5.68 nM
IC50 (PANC-1; Homo sapiens, PANC-1, 72 h, read-out: IC50 Test (II) Avg (nM)): 4.56 nM
IC50 (PANC-1; Homo sapiens, PANC-1, 72 h, read-out: IC50 Test (III) Avg (nM)): 4.74 nM
IC50 (A549; [4]): 1.64 nM
IC50 (A549; [5]): 1.85 nM
IC50 (A549; [6]): 1.64 nM
IC50 (H460; [4]): 0.35 nM
IC50 (H460; [5]): 0.35 nM
IC50 (H460; [6]): 0.35 nM
IC50 (H1299; [4]): 1.78 nM
IC50 (H1299; [5]): 1.15 nM
IC50 (H1299; [6]): 1.28 nM
absorption from the GI tract [2]: poorly absorbed
irritation to tissues [3]: extremely irritating to tissues

Cc1c2oc3c(C)ccc(C(=O)NC4C(=O)NC(C(C)C)C(=O)N5CCCC5C(=O)N(C)CC(=O)N(C)C(C(C)C)C(=O)OC4C)c3nc-2c(C(=O)NC2C(=O)NC(C(C)C)C(=O)N3CCCC3C(=O)N(C)CC(=O)N(C)C(C(C)C)C(=O)OC2C)c(N)c1=O.O=C(O)c1ccccc1-c1ccccc1C(=O)O (centres unmarked) [DACT-diphenic Acid]
IC50 (U-2 OS; [7]): 4.34 nM
IC50 (U-2 OS; [8]): 4.3 nM
IC50 (U-2 OS; [9]): 2.69 nM
IC50 (SK-Mel-5; [10]): 0.42 nM
IC50 (SK-Mel-5; [11]): 0.32 nM
IC50 (SK-Mel-5; [12]): 2.3 nM
IC50 (PC-3; [13]): 6.38 nM
IC50 (PC-3; [14]): 5.89 nM
IC50 (PC-3; [15]): 6.55 nM
IC50 (PANC-1; [16]): 5.31 nM
IC50 (PANC-1; [17]): 3.25 nM
IC50 (PANC-1; [18]): 3.83 nM
physical form stability [1]: stable

COC(=O)c1ccc(O)cc1.Cc1c2oc3c(C)ccc(C(=O)NC4C(=O)NC(C(C)C)C(=O)N5CCCC5C(=O)N(C)CC(=O)N(C)C(C(C)C)C(=O)OC4C)c3nc-2c(C(=O)NC2C(=O)NC(C(C)C)C(=O)N3CCCC3C(=O)N(C)CC(=O)N(C)C(C(C)C)C(=O)OC2C)c(N)c1=O (centres unmarked) [DACT-methylparaben]
IC50 (SK-ES-1; [4]): 0.71 nM
IC50 (SK-ES-1; [5]): 0.51 nM
IC50 (SK-ES-1; [6]): 0.58 nM
IC50 (U-2 OS; [7]): 4.3 nM
IC50 (U-2 OS; [8]): 4.38 nM
IC50 (U-2 OS; [9]): 2.27 nM
IC50 (SK-Mel-5; [10]): 0.36 nM
IC50 (SK-Mel-5; [11]): 0.37 nM
IC50 (SK-Mel-5; [12]): 2.3 nM
IC50 (PC-3; [13]): 7.1 nM
IC50 (PC-3; [14]): 5.53 nM
IC50 (PC-3; [15]): 6.15 nM
IC50 (PANC-1; [16]): 4.15 nM
IC50 (PANC-1; [17]): 2.66 nM
IC50 (PANC-1; [18]): 3.48 nM
physical form stability [1]: stable
